{"source": "paper PMC5152921", "about": "“Evolutionary and Functional Diversification of the Vitamin D Receptor-Lithocholic Acid Partnership” (PLoS ONE, 2016)", "test_in_all_cases": "Competitive ligand binding assay ([3H]-1,25D3 displacement)", "details_in_all_cases": "lysate with VDR and human RXRWT; 4 nM [3H]-1,25D3; 18 hours at 4°C; Cheng-Prusoff; mean ± SEM", "key": {"Bichir VDR": {"biological_target": "T1, Bichir VDR (Polypterus senegalus, UniProt A0A088GJ14)", "T1 sequence (A0A088GJ14 1-421)": "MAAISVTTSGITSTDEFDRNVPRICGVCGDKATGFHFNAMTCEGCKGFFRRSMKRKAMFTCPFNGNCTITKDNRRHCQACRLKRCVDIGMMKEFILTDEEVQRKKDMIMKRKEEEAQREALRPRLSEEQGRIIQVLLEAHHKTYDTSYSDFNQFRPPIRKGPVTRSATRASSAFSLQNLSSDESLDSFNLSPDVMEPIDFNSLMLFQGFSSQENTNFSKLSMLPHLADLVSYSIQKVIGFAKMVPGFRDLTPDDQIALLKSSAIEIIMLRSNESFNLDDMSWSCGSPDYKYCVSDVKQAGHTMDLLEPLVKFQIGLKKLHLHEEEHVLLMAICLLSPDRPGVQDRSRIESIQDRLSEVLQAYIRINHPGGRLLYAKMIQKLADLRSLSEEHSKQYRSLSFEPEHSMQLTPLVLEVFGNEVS", "T1 sequence (P19793 1-462 partner)": "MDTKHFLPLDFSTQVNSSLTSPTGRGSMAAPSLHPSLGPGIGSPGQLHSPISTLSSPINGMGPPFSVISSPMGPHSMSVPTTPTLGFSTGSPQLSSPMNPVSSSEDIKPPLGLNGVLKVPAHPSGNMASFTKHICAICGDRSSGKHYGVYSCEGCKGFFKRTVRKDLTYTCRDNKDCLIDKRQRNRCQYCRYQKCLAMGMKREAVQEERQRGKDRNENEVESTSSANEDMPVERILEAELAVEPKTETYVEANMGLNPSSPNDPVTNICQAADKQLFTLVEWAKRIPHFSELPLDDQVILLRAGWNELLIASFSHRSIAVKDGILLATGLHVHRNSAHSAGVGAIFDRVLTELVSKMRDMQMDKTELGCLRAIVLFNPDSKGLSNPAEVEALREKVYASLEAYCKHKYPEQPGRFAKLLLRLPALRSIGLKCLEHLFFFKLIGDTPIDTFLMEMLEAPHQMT", "method": "(§1) Recombinant VDR and human RXRWT lysates were prepared from transfected COS7 cells (American Type Culture Collection #CRL-1651) as described in detail previously. Lysates were diluted 10-fold in ice-cold assay buffer (10 mM Tris HCl, 150 mM KCl, 1 mM EDTA, 0.3 mM ZnCl2, 5 mM DTT, and 1x protease inhibitor cocktail (100 μM AEBSF, 80 nM aprotinin, 5 μM bestatin, 1.5 μM E-64 (for cysteine proteases), 2 μM leupeptin, 1 μM pepstatin A), pH 7.5). […] Reactions were shaken to mix and incubated for 18 hours at 4°C. Bound and free ligand were separated with the addition of 80 μL of ice-cold separation buffer (2.5% (w/v) activated charcoal, 0.5% (w/v) dextran, 100 mM Na2HPO4, 39 mM NaH2PO4, 150 mM NaCl, 15 mM NaN3, 10% gelatin, pH 7.0), and incubated at 4°C for 15 minutes with shaking every 5 minutes. Reactions were centrifuged at 5,000 x g for 5 minutes at 4°C, and 200 μL of the supernatant containing the VDR-bound ligands was removed for scintillation counting.\n(§2) Total binding was determined using lysate from cells transfected with VDR, and nonspecific binding was determined using lysate from cells transfected with the empty pSG5 vector. Specific binding was determined by subtracting non-specific binding counts from the total binding counts."}, "Medaka VDRβ": {"biological_target": "T2, Medaka VDRβ (Oryzias latipes, UniProt B2CCA1)", "T2 sequence (B2CCA1 1-425)": "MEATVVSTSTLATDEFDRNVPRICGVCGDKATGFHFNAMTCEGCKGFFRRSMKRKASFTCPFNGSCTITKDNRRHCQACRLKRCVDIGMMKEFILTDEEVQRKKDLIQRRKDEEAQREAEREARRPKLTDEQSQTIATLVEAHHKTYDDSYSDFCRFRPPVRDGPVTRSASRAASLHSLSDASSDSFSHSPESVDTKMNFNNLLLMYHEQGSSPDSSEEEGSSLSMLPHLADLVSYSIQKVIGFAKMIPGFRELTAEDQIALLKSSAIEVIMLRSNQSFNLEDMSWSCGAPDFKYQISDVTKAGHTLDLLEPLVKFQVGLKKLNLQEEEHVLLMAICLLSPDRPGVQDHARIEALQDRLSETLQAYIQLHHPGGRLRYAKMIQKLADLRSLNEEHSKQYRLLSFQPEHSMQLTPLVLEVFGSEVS", "T2 sequence (P19793 1-462 partner)": "T1 sequence (P19793 1-462 partner)", "method": "as §1, §2"}, "Skate VDR": {"biological_target": "T3, Skate VDR (Leucoraja erinacea, UniProt A0A088GDQ7)", "T3 sequence (A0A088GDQ7 1-434)": "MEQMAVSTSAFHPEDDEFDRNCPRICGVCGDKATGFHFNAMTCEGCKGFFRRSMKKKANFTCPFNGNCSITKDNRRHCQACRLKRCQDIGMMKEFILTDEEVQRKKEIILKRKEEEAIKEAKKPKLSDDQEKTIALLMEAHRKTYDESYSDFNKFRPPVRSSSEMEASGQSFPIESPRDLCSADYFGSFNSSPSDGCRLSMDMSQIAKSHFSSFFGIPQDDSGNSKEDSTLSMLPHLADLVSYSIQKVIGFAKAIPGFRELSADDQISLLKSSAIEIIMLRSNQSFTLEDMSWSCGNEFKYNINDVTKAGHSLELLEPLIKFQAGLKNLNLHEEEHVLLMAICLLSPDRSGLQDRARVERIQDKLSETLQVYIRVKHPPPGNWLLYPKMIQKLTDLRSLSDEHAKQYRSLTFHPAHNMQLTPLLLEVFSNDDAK", "T3 sequence (P19793 1-462 partner)": "T1 sequence (P19793 1-462 partner)", "method": "as §1, §2"}, "Zebrafish VDRα": {"biological_target": "T4, Zebrafish VDRα (Danio rerio, UniProt Q9PTN2)", "T4 construct": "89.7 ng/well of full-length pSG5-VDR was co-transfected; expressed in transfected cells; host or cells: COS7", "T4 sequence (Q9PTN2 1-453)": "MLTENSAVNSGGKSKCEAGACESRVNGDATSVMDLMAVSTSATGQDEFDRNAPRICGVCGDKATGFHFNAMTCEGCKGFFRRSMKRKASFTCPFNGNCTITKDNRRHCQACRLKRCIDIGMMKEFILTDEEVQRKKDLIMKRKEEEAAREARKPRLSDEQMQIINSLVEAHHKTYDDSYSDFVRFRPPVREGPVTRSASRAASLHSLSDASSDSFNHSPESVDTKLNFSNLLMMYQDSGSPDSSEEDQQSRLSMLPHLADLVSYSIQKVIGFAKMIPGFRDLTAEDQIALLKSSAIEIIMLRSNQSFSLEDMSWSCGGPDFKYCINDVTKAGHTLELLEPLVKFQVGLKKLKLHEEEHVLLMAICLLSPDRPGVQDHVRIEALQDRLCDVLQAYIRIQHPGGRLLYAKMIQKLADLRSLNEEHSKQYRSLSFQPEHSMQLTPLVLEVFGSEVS", "T4 sequence (P19793 1-462 partner)": "T1 sequence (P19793 1-462 partner)", "method": "as §1, §2"}}, "data": [{"smiles": "C[C@H](CCC(=O)O)[C@H]1CC[C@H]2[C@@H]3CC[C@@H]4C[C@H](O)CC[C@]4(C)[C@H]3CC[C@]12C", "note": "[LCA, 5β-cholanic acid-3α-ol]", "values": [{"measurement": "Ki", "setting": "Bichir VDR", "value": "4.2 ± 0.4", "unit": "µM"}, {"measurement": "Ki", "setting": "Medaka VDRβ", "value": "7.6 ± 1.1", "unit": "µM"}, {"measurement": "Ki", "setting": "Skate VDR", "value": "6.7 ± 2.1", "unit": "µM"}, {"measurement": "Ki", "setting": "Zebrafish VDRα", "value": "5.5 ± 1.9", "unit": "µM"}]}]}
